Assay results taken from patent US11447504B2, “Macrocyclic chlorine substituted indole derivatives” (Bayer Aktiengesellschaft, priority 2017, dated 2022).
Where two headings read alike, the source gives them in different places.

What was measured:
[1] = tested on: AMO-1; test: Antiproliferation assay 7, AMO-1; assay type: cell-based; conditions: AMO-1 cells, CellTiter-Glo, read-out: Antiproli AMO-1 IC50 median
Method in brief: (§1)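 Plate cells in treatment and day 0 reference plates; read day 0 plate with CellTiter-Glo after 10 min; incubate treated plates 72 h at 37° C; read them identically.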

[2] = tested on: SUDHL10; test: Induction of cytotoxicity (Assay 6), SUDHL10
[3] = tested on: SUDHL5; test: Induction of caspase-3/7 activity (Assay 4), SUDHL5; assay type: cell-based; conditions: SUDHL5 cells
Method in brief: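 DLBCL cells treated with compounds for 3 hours at 37° C. Caspase-3/7 activity measured by Caspase-Glo 3/7 luminescence, with medium-only background subtracted.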

[4] = tested on: SK-BR-3; test: Antiproliferation assay 7, SK-BR-3; assay type: cell-based; conditions: Homo sapiens; SK-BR-3 cells, 72 hours, CellTiter-Glo; read-out: Antiproli SK-BR-3 IC50 median
Method: (§2) Assessment of the Anti-Proliferative Effect of Compounds in Different Cell Lines
(§3) The impact of compounds on the proliferation of different cell lines was assessed using the CellTiter-Glo® Luminescent Cell Viability reagent from Promega (G7573).
(§4) In parallel, cells were plated in a reference (day 0) plate for time zero determination.
(§5) Rim wells were excluded. The cells were incubated for 72 hours in a humidified incubator at 37° C. The day 0 plate was measured by adding 30 μL/well of CTG solution (CellTiter-Glo® Luminescent Cell Viability reagent, Promega G7573) to time zero wells in the reference plate followed by a 10 minutes incubation and luminescence reading at 0.1 ms. using the PHERAstar FS microplate reader (BMG Labtech).
(§6) After 72 hours incubation, the treated plates were measured in the same way as the day 0 plate mentioned above.

[5] = tested on: SUDHL5; test: Antiproliferation assay 7, SUDHL5; assay type: cell-based; conditions: SUDHL5 cells, CellTiter-Glo, read-out: Antiproli SUDHL5 IC50 (median)
Method in brief: as §1

[6] = tested on: HMC-1-8; test: Antiproliferation assay 7, HMC-1-8; assay type: cell-based; conditions: HMC-1-8 cells, CellTiter-Glo, read-out: Antiproli HMC-1-8 IC50 median
Method in brief: as §1

[7] = tested on: MV-4-11; test: Antiproliferation assay 7, MV-4-11; assay type: cell-based; conditions: MV-4-11 cells, CellTiter-Glo, read-out: Antiproli MV-4-11 IC50 median
Method in brief: as §1

[8] = tested on: SUDHL5; test: Induction of cytotoxicity (Assay 6), SUDHL5
[9] = tested on: SUDHL10; test: Induction of caspase-3/7 activity (Assay 4), SUDHL10; assay type: cell-based; conditions: SUDHL10 cells
Method in brief: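 Luminescent Caspase-Glo 3/7 read-out after a 3 h, 37 °C compound exposure of the DLBCL line SUDHL10. Values are background-corrected using medium-only wells.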

[10] = biological target: BCL-2 (Homo sapiens (Human), UniProt P10415); test: Protein-protein interaction assay BCL-2/Bad BH3 peptide (BCL-2 Assay, TR-FRET); assay type: binding; conditions: read-out: BCL-2 Assay IC50 (median)
BCL-2, sequence (P10415 other isoform, or with tags, fused parts or gaps): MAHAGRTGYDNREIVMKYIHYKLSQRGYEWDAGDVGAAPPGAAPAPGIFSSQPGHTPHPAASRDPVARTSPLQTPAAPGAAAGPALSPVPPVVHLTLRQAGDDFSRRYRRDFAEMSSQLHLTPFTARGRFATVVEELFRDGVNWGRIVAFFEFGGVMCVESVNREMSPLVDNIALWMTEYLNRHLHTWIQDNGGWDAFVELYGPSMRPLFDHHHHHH
Method: The dose-dependent inhibition by the compounds described in this invention of the interaction between BCL-2 and the BH3 domain of Bad (both human) was determined using a steady state binding competition assay with time-resolved fluorescence energy transfer (TR-FRET) readout.
(§7) For that, 100-fold concentrated DMSO solutions were prepared by serial dilutions (1:3.4) of a 2 mM stock solution in a clear, 384-well microtiter plate (Greiner Bio-One, Frickenhausen, Germany). From there, 50 nl were transferred in a dark test plate (Greiner Bio-One, Frickenhausen, Germany). […] This was followed by a 10-minute incubation step at 22° C. for pre-equilibration of the putative complex between His-BCL-2 and the compounds.
(§8) The mixture was incubated in the dark for one hour at 22° C. and then overnight at 4° C.
(§9) The resulting data (ratio) were normalized, taking 0% inhibition as the mean value of control measurements (usually 32 data points) where all reagents were included. In this case 50 nl DMSO were used instead of compounds. […] IC50 values were determined by regression analysis based on a 4 parameter equation (minimum, maximum, IC50, Hill; Y=Max+(Min−Max)/(1+(X/IC50)^Hill) using the Screener Software (Genedata).

[11] = biological target: BCL-XL (Homo sapiens (Human), UniProt Q07817); test: Protein-protein interaction assay BCL-XL/Bad BH3 peptide (BCL-XL Assay, TR-FRET); assay type: binding; conditions: read-out: BCL-XL Assay IC50 (median)
BCL-XL, sequence (Q07817 other isoform, or with tags, fused parts or gaps): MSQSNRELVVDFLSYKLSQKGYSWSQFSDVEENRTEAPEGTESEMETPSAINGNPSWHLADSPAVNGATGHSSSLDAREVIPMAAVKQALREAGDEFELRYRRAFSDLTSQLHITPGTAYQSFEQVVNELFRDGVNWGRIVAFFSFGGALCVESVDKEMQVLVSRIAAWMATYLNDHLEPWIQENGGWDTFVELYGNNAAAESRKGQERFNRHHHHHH
Method: Assay 2 Protein-Protein Interaction Assay: BCL-XL/Bad BH3 Peptide (BCL-XL Assay)
The dose-dependent inhibition by the compounds described in this invention of the interaction between BCL-XL and the BH3 domain of Bad (both human) was determined using a steady state binding competition assay with time-resolved fluorescence energy transfer (TR-FRET) readout.
as §7, with “His-BCL-XL” for “His-BCL-2”
The mixture was incubated in the dark for one hour at 22° C. and then overnight at 4° C. The formation of BCL-XL/Bad complexes was determined by measuring the resonance energy transfer of the anti-His- Eu-cryptate antibody to the streptavidin-XL665 present in the reaction.
as §9

[12] = biological target: MCL-1 (Homo sapiens (Human), UniProt Q07820, K194A/K197A/R201A); test: Protein-protein interaction assay MCL-1/Noxa BH3 peptide (MCL-1 Assay, TR-FRET); assay type: binding; conditions: read-out: MCL-1 Assay IC50 (median)
MCL-1, sequence (Q07820 whole entry K194A/K197A/R201A, looked up, the tested form may be a part): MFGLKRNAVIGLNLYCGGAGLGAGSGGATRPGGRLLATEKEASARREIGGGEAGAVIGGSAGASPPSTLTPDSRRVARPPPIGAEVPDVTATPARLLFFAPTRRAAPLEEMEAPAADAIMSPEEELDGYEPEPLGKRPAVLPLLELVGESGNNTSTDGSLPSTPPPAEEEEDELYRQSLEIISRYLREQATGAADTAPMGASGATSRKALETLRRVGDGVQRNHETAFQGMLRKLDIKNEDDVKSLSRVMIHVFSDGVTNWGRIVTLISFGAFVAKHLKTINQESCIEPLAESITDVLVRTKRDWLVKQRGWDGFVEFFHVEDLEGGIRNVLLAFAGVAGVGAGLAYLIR
Method: The dose-dependent inhibition by the compounds described in this invention of the interaction between MCL-1 and the BH3 domain of Noxa (both human) was determined using a steady state binding competition assay with time-resolved fluorescence energy transfer (TR-FRET) readout. […] The MBP-MCL-1 was purchased from Beryllium (Bedford, Mass., USA). The expression and purification of this protein construct has been described elsewhere (DOI:10.1371/journal.pone.0125010). The Noxa BH3-derived peptide can be obtained from e.g. Biosyntan (Berlin, Germany).
as §7, with “MBP-MCL-1” for “His-BCL-2”
as §8, §9

[13] = tested on: SUDHL10; test: Antiproliferation assay 7, SUDHL10; assay type: cell-based; conditions: Homo sapiens, SU-DHL10, 72 h, SUDHL10 cells, CellTiter-Glo, read-out: Antiproli SUDHL10 IC50 (median)
Method: as §2, §3, §4, §5, §6

[14] = Homo sapiens, SU-DHL10, 5 h, read-out: Cytotox SUDHL10 IC50 (median), SUDHL10 cells, 5 hours, CellTiter-Glo
[15] = Homo sapiens, SU-DHL-5, 3 h, Caspase-Glo 3/7, read-out: Caspase SUDHL5 EC50 (median)
[16] = Homo sapiens, SU-DHL-5, 5 h, read-out: Cytotox SUDHL5 IC50 (median), SUDHL5 cells, 5 hours, CellTiter-Glo
[17] = Homo sapiens, SU-DHL10, 3 h, Caspase-Glo 3/7, read-out: Caspase SUDHL10 EC50 (median)
[18] = 3 hours, Caspase-Glo 3/7, read-out: Caspase SUDHL5 EC50 (median)
[19] = read-out: Cytotox SUDHL5 IC50 (median), SUDHL5 cells, 5 hours, CellTiter-Glo

EC50 [3, 15] [nM]	IC50 [4] [nM]	IC50 ([5]; Homo sapiens, SU-DHL-5, 72 h) [nM]	IC50 ([7]; Homo sapiens, MV4-11, 72 h) [nM]	EC50 [9, 17] [nM]	IC50 [10] [nM]	IC50 [11] [nM]	IC50 [12] [nM]	EC50 [3, 18] [nM]	SMILES	IC50 ([1]; Homo sapiens, AMO1, 72 h) [nM]	IC50 [2, 14] [nM]	IC50 ([6]; 72 h) [nM]	IC50 [8, 16] [nM]	IC50 [8, 19] [nM]	also measured
340	3260	570	1650	320					CCc1c2c(nn1C)COCCCCn1c(C(=O)O)c(CCCOc3cccc4ccccc34)c3ccc(Cl)c-2c31 (racemic) [Example 19, (rac)-4-chloro-3-ethyl-2-methyl-7-[3-(naphthalen-1-yloxy)propyl]-2,10,11,12,13,15-hexahydropyrazolo[4′,3′:9,10][1,6]oxazacycloundecino[8,7,6-hi]indole-8-carboxylic Acid]		440		480		
140	894	280	692	270					CCc1c2c(nn1C)CN(C)CCCCn1c(C(=O)O)c(CCCOc3cccc4ccccc34)c3ccc(Cl)c-2c31 (racemic) [Example 22, (rac)-4-chloro-3-ethyl-2,14-dimethyl-7-[3-(naphthalen-1-yloxy)propyl]-10,11,12,13,14,15-hexahydro-2H-pyrazolo[3′,4′:8,9][1,6]diazacycloundecino[10,11,1-hi]indole-8-carboxylic Acid]	659	400		160		
480		970		490	17000	> 20000	1.1		CCc1c2c(nn1C)N(C)CCCCCn1c(C(=O)O)c(CCCOc3cccc4cc(F)ccc34)c3ccc(Cl)c-2c31 (racemic) [Example 77, (rac)-4-chloro-3-ethyl-7-{3-[(6-fluoronaphthalen-1-yl)oxy]propyl}-2,15-dimethyl-10,11,12,13,14,15-hexahydro-2H-pyrazolo[4′,3′:4,5][1,6]diazacycloundecino[3,2,1-hi]indole-8-carboxylic Acid]	530	870	3300	450		
					> 20000	> 20000	16	15000	Cc1c2c(nn1C)N(C)CCCCCn1c(C(=O)O)c(CCCOc3cccc4ccccc34)c3ccc(Cl)c-2c31 (single isomer, unassigned) [Example 73, (−)-4-chloro-2,3,15-trimethyl-7-{3-[(naphthalen-1-yl)oxy]propyl}-10,11,12,13,14,15-hexahydro-2H-pyrazolo[4′,3′:4,5][1,6]diazacycloundecino[3,2,1-hi]indole-8-carboxylic acid]					14000	IC50 ([1]; 72 hours): 18000 nM; IC50 ([2]; read-out: Cytotox SUDHL10 IC50 (median), SUDHL10 cells, 5 hours, CellTiter-Glo): 26000 nM; IC50 ([6]; 72 hours): 24000 nM; EC50 ([9]; 3 hours, Caspase-Glo 3/7, read-out: Caspase SUDHL10 EC50 (median)): 18000 nM
	2520							140	CCc1c2c(nn1C)COCCCCn1c(C(=O)O)c(CCCOc3cccc4ccccc34)c3ccc(Cl)c-2c31 (single isomer, unassigned; enantiomer 1) [Example 20, 4-chloro-3-ethyl-2-methyl-7-[3-(naphthalen-1-yloxy)propyl]-2,10,11,12,13,15-hexahydropyrazolo[4′,3′:9,10][1,6]oxazacycloundecino[8,7,6-hi]indole-8-carboxylic Acid (Enantiomer 1)]	874		2470		170	IC50 [13]: 450 nM; IC50 ([5]; 72 hours): 220 nM; IC50 ([7]; 72 hours): 907 nM

SMILES	EC50 [3, 15] [nM]	IC50 [4] [nM]	IC50 ([5]; Homo sapiens, SU-DHL-5, 72 h) [nM]	IC50 ([7]; Homo sapiens, MV4-11, 72 h) [nM]	EC50 [9, 17] [nM]	IC50 [10] [nM]	IC50 [11] [nM]	IC50 [12] [nM]	EC50 [3, 18] [nM]	IC50 ([1]; Homo sapiens, AMO1, 72 h) [nM]	IC50 [2, 14] [nM]	IC50 ([6]; 72 h) [nM]	IC50 [8, 16] [nM]	IC50 [8, 19] [nM]	also measured
Cc1c2c(nn1C)CN(C)CCCCn1c(C(=O)O)c(CCCOc3cccc4ccccc34)c3ccc(Cl)c-2c31 (racemic) [Example 11, (rac)-4-chloro-2,3,14-trimethyl-7-[3-(naphthalen-1-yloxy)propyl]-10,11,12,13,14,15-hexahydro-2H-pyrazolo[3′,4′:8,9][1,6]diazacycloundecino[10,11,1-hi]indole-8-carboxylic Acid]	140	1480	300	442	260					728	370	4190	180		
